Measured values taken from ChEMBL document CHEMBL1909046, “DrugMatrix in vitro pharmacology data”.

Legend:
[1] = molecular target: Nitric oxide synthase 1 (Rattus norvegicus, UniProt P29476); format: tissue-based, Cerebellum; also: in other assays of this panel Not Active means under 50% inhibition at 10 µM
[2] = molecular target: Mitogen-activated protein kinase 3 (Homo sapiens, UniProt P27361); assay: DRUGMATRIX: Protein Serine/Threonine Kinase, ERK1 enzyme inhibition (substrate: Myelin Basic Protein); set-up: species or system Escherichia coli; settings: Not Active = under 50% inhibition at 10 µM
[3] = molecular target: Melanocortin receptor 3 (Homo sapiens, UniProt P41968); format: cell membranes, Membrane; settings: hek293; also: in other assays of this panel Not Active means under 50% inhibition at 10 µM
[4] = molecular target: T1, Interstitial collagenase (Homo sapiens, UniProt P03956); format: tissue-based, Rheumatoid synovial fibroblasts;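 also: MMP-1 enzyme inhibition assay using a peptide substrate; in other assays of this panel Not Active means under 50% inhibition at 10 µM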
T1 sequence (P03956 whole entry): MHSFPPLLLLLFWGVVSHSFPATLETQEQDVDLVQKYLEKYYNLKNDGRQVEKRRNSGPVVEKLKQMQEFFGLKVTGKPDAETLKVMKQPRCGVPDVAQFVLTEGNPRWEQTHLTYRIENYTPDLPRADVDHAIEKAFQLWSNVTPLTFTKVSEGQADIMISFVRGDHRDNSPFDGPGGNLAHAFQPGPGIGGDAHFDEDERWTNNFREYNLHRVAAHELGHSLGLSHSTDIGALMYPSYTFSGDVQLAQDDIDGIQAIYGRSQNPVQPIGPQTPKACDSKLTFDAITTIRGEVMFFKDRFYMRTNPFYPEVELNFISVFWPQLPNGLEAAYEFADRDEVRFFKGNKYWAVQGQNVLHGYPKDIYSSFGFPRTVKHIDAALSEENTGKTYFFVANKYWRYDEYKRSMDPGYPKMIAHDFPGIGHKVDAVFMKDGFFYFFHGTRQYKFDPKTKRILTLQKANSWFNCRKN

[5] = molecular target: T2, Endothelin-1 receptor (Homo sapiens, UniProt P25101); format: cell membranes, Membrane; settings: cho-k1; also: in other assays of this panel Not Active means under 50% inhibition at 10 µM
T2 sequence (P25101 whole entry): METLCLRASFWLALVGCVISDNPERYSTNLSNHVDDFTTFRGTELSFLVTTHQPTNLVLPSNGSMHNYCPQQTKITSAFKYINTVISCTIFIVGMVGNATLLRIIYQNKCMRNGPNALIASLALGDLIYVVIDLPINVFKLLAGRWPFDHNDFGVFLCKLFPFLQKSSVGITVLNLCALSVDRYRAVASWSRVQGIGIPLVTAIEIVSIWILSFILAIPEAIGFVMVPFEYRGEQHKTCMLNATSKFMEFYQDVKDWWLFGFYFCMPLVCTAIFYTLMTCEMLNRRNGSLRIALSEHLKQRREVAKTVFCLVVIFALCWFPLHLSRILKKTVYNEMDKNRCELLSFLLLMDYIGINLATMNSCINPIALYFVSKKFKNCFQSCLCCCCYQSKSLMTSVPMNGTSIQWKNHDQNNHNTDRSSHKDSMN

[6] = molecular target: Aldo-keto reductase family 1 member B1 (Rattus norvegicus, UniProt P07943); format: tissue-based, Lens of camera-type eye
[7] = molecular target: T3, Cathepsin G (Homo sapiens, UniProt P08311); format: tissue-based; settings: neutrophil
T3 sequence (P08311 whole entry): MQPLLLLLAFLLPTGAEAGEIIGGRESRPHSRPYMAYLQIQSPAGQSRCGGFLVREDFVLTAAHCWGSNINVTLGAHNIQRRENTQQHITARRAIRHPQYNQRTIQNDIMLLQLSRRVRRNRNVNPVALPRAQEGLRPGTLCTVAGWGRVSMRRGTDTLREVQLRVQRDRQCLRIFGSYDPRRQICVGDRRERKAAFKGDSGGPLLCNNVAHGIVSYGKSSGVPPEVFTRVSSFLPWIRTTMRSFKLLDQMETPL

[8] = molecular target: T4, Neuropeptide Y receptor type 1 (Homo sapiens, UniProt P25929); format: cell membranes, Membrane; settings: sk-n-mc; also: in other assays of this panel Not Active means under 50% inhibition at 10 µM
T4 sequence (P25929 whole entry): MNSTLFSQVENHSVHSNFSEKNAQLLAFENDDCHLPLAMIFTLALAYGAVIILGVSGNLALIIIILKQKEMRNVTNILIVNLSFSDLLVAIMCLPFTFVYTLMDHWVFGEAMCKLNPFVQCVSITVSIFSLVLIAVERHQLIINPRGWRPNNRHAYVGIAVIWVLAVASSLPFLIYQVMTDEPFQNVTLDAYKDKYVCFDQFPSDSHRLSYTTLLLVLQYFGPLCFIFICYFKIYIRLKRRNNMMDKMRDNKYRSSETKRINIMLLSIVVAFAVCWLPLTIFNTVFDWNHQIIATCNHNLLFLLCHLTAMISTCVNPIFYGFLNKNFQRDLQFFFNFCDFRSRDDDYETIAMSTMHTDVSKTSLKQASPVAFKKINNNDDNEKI

[9] = molecular target: T5, Alpha-1B adrenergic receptor (Rattus norvegicus, UniProt P15823); assay: DRUGMATRIX: Alpha-1B adrenergic receptor radioligand binding (ligand: prazosin); format: cell membranes, Wistar, Liver, Membrane; settings: Not Active = under 50% inhibition at 10 µM
T5 sequence (P15823 whole entry): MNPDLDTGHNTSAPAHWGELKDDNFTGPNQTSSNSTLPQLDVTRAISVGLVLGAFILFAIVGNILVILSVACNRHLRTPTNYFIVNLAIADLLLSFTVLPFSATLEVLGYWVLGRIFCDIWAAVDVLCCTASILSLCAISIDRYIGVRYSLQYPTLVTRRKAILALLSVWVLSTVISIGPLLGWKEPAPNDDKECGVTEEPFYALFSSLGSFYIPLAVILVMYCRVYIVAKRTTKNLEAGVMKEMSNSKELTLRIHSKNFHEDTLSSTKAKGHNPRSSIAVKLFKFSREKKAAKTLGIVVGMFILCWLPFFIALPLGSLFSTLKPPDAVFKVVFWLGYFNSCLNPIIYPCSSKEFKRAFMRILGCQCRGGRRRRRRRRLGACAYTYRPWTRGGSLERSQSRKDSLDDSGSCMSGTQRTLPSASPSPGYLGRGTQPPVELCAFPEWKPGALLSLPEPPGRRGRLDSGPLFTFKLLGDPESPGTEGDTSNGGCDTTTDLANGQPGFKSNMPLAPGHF

[10] = molecular target: T6, Vasoactive intestinal polypeptide receptor 1 (Homo sapiens, UniProt P32241); format: cell membranes, Membrane; settings: ht-29; also: in other assays of this panel Not Active means under 50% inhibition at 10 µM
T6 sequence (P32241 whole entry): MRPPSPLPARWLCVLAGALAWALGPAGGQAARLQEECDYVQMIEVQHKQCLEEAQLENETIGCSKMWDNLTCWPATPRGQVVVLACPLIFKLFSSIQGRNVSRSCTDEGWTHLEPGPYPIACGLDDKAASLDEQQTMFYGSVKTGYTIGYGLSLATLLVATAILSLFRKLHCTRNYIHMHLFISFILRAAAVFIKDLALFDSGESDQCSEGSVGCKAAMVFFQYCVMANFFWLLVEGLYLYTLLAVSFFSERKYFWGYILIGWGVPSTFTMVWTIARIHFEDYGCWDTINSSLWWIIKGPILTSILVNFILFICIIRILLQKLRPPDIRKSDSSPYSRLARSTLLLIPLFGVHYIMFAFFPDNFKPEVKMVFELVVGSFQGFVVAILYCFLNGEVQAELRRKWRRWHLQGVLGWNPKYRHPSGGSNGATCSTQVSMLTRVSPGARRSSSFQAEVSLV

Nitric oxide synthase 1, sequence (P29476 whole entry): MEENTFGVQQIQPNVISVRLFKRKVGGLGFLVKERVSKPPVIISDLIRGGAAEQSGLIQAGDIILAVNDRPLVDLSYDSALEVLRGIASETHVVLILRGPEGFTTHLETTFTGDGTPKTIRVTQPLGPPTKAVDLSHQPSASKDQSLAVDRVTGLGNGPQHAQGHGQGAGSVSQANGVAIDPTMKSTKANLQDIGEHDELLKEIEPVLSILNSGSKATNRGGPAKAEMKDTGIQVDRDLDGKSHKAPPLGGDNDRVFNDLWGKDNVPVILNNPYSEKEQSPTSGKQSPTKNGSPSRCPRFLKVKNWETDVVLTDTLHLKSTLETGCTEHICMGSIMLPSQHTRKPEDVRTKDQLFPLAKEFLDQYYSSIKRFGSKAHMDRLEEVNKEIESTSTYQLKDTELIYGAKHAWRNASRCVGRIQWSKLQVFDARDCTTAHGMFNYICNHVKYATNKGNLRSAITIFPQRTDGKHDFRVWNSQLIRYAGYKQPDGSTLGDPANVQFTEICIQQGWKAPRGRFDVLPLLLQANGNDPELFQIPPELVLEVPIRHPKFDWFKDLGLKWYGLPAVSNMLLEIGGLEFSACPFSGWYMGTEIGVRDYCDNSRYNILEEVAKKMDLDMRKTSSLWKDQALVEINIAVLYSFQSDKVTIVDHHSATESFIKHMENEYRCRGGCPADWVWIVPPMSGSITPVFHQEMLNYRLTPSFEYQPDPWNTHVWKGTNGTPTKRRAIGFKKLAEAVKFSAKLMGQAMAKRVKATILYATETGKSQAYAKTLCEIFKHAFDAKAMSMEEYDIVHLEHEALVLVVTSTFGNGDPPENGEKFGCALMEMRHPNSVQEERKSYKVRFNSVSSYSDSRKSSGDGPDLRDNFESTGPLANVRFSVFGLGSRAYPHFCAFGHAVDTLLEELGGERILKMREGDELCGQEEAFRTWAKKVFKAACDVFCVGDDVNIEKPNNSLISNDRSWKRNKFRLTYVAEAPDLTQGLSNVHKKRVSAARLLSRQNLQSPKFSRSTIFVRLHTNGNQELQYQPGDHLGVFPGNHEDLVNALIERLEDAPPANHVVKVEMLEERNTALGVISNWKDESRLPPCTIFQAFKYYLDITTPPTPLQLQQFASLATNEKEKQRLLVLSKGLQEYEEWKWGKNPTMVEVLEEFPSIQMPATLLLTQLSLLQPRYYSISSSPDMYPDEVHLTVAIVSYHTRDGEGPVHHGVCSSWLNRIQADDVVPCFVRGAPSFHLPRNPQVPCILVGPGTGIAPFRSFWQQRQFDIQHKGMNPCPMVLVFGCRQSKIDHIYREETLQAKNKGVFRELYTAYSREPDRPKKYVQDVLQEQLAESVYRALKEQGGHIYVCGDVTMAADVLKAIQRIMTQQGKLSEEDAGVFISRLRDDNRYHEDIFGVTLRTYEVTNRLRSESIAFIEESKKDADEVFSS
Mitogen-activated protein kinase 3, sequence (P27361 whole entry): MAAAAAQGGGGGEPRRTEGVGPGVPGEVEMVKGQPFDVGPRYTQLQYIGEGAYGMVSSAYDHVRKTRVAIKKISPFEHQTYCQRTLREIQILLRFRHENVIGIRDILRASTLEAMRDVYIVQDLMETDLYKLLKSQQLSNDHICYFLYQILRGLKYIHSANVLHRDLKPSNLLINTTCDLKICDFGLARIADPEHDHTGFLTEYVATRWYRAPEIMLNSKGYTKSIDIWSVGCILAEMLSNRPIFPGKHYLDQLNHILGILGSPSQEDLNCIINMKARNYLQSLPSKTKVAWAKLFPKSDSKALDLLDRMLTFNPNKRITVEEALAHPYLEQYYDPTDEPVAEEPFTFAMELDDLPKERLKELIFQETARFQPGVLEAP
Melanocortin receptor 3, sequence (P41968 whole entry): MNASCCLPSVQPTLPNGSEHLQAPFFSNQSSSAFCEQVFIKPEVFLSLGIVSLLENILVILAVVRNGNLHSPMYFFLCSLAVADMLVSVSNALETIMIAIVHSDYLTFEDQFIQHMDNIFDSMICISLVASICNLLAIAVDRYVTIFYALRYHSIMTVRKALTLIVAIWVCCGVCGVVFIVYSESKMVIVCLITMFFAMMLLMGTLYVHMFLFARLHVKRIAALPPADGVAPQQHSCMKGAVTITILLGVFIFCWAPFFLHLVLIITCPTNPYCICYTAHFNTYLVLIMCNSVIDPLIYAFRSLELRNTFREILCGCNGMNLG

OXALIPLATIN
Not Active: IC50 [1] | Ki [1] | IC50 [2] | Ki [2] | IC50 [3] | Ki [3] | IC50 [4] | Ki [4] | IC50 [5] | Ki [5] | IC50 [6] | Ki [6] | IC50 [7] | Ki [7] | IC50 [8] | Ki [8] | IC50 [9] | Ki [9] | IC50 [10] | Ki [10]
